Experimental data from patent US20200024278A1, “COMPOSITION COMPRISING ANTIBIOTIC COMPOUND AND AN HETEROCYCLIC COMPOUND AND THEIR USE IN PREVENTING OR TREATING BACTERIAL INFECTIONS” (MUTABILIS, priority 2016, published 2020).

Tests used:
Assay in all cases: MIC, broth microdilution (CLSI), substance alone or ATB combined with compound at 4 or 8 μg/mL
ECO 190317 = type: cell-based, E. coli; details: ECO 190317
In short: (§1)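 Each strain received 5·10^5 CFU/mL of log-phase cells in ca-MHB over DMSO-spotted compound or compound-antibiotic combinations. After 16-20 h at 35° C, growth was scored visually.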

ECO UFR39 = type: cell-based, E. coli; details: ECO UFR39
In short: as §1

KPN 6299 = type: cell-based, K. pneumoniae
In short: as §1

KPN BAA-1898 = type: cell-based, K. pneumoniae; details: KPN BAA-1898
In short: as §1

KPN UFR42 = type: cell-based, K. pneumoniae; details: KPN UFR42
In short: as §1

ECL P99 = type: cell-based, E. cloacae; details: ECL P99
In short: as §1

**Q.** How did the “MIC ATB alone” value (ECO 190317; antibiotic alone) turn out when `C[C@@H](O)[C@H]1C(=O)N2C(C(=O)O)=C(SCCN=CN)C[C@H]12` [IMI] was run?
**A.** Its value is 0.125 µg/mL.

**Q.** What about the “MIC ATB combined with Example 1 @8 μg/ml” value (ECO 190317; with Example 1 @8 μg/ml) of the same molecule?
**A.** The value was <0.031 µg/mL.

**Q.** What about the “MIC ATB combined with Example 1 @8 μg/ml” value (ECO 190317; with Example 1 at 8 μg/ml) of the same molecule?
**A.** The value was <0.031 µg/mL.

**Q.** And the “MIC ATB combined with Example 7 @8 μgml” value (ECO 190317; with Example 7 at 8 μg/ml)?
**A.** The value was <0.031 µg/mL.

**Q.** And the “MIC ATB combined with Example 9 @4 μg/ml” value (ECO 190317; with Example 9 @4 μg/ml)?
**A.** The value was <0.031 µg/mL.

**Q.** What about the “MIC ATB combined with Example 9 @4 μg/ml” value (ECO 190317; with Example 9 at 4 μg/ml) of the same molecule?
**A.** The value was <0.031 µg/mL.

**Q.** What about the “MIC ATB combined with Example 11 @8 μg/ml” value (ECO 190317; with Example 11 at 8 μg/ml) of the same molecule?
**A.** The value was <0.031 µg/mL.

**Q.** And the “MIC ATB combined with Example 12 @8 μg/ml” value (ECO 190317; with Example 12 at 8 μg/ml)?
**A.** Its value is <0.031 µg/mL.

**Q.** What about the “MIC ATB combined with Example 13 @8 μg/ml” value (ECO 190317; with Example 13 at 8 μg/ml) of the same molecule?
**A.** The value was <0.031 µg/mL.

**Q.** And the “MIC ATB combined with Example 14 @8 μg/ml” value (ECO 190317; with Example 14 at 8 μg/ml)?
**A.** Its value is <0.031 µg/mL.

**Q.** What about the “MIC ATB combined with Example 15 @4 μgml” value (ECO 190317; with Example 15 at 4 μg/ml) of the same molecule?
**A.** The value was <0.031 µg/mL.

**Q.** And the “MIC ATB combined with Example 16 @4 μg/ml” value (ECO 190317; with Example 16 at 4 μg/ml)?
**A.** The value was <0.031 µg/mL.

**Q.** And the “MIC ATB alone” value (ECO UFR39; antibiotic alone)?
**A.** The value was 16 µg/mL.

**Q.** What about the “MIC ATB combined with Example 1 @8 μg/ml” value (ECO UFR39; with Example 1 @8 μg/ml) of the same molecule?
**A.** Its value is <0.031 µg/mL.

**Q.** And the “MIC ATB combined with Example 1 @8 μg/ml” value (ECO UFR39; with Example 1 at 8 μg/ml)?
**A.** The value was <0.031 µg/mL.

**Q.** What about the “MIC ATB combined with Example 7 @8 μgml” value (ECO UFR39; with Example 7 at 8 μg/ml) of the same molecule?
**A.** Its value is <0.031 µg/mL.

**Q.** And the “MIC ATB combined with Example 9 @4 μg/ml” value (ECO UFR39; with Example 9 @4 μg/ml)?
**A.** Its value is <0.031 µg/mL.

**Q.** And the “MIC ATB combined with Example 9 @4 μg/ml” value (ECO UFR39; with Example 9 at 4 μg/ml)?
**A.** Its value is <0.031 µg/mL.

**Q.** And the “MIC ATB combined with Example 11 @8 μg/ml” value (ECO UFR39; with Example 11 at 8 μg/ml)?
**A.** Its value is <0.031 µg/mL.

**Q.** What about the “MIC ATB combined with Example 12 @8 μg/ml” value (ECO UFR39; with Example 12 at 8 μg/ml) of the same molecule?
**A.** The value was <0.031 µg/mL.

**Q.** And the “MIC ATB combined with Example 13 @8 μg/ml” value (ECO UFR39; with Example 13 at 8 μg/ml)?
**A.** The value was <0.031 µg/mL.

**Q.** What about the “MIC ATB combined with Example 14 @8 μg/ml” value (ECO UFR39; with Example 14 at 8 μg/ml) of the same molecule?
**A.** The value was <0.031 µg/mL.

**Q.** And the “MIC ATB combined with Example 15 @4 μgml” value (ECO UFR39; with Example 15 at 4 μg/ml)?
**A.** The value was <0.031 µg/mL.

**Q.** What about the “MIC ATB combined with Example 16 @4 μg/ml” value (ECO UFR39; with Example 16 at 4 μg/ml) of the same molecule?
**A.** The value was <0.031 µg/mL.

**Q.** What about the “MIC ATB alone” value (KPN 6299; antibiotic alone) of the same molecule?
**A.** Its value is 0.25 µg/mL.

**Q.** What about the “MIC ATB combined with Example 1 @8 μg/ml” value (KPN 6299; with Example 1 @8 μg/ml) of the same molecule?
**A.** The value was 1 µg/mL.

**Q.** And the “MIC ATB combined with Example 1 @8 μg/ml” value (KPN 6299; with Example 1 at 8 μg/ml)?
**A.** The value was 1 µg/mL.

**Q.** And the “MIC ATB combined with Example 7 @8 μgml” value (KPN 6299; with Example 7 at 8 μg/ml)?
**A.** Its value is 4 µg/mL.

**Q.** What about the “MIC ATB combined with Example 9 @4 μg/ml” value (KPN 6299; with Example 9 @4 μg/ml) of the same molecule?
**A.** The value was <0.031 µg/mL.

**Q.** And the “MIC ATB combined with Example 9 @4 μg/ml” value (KPN 6299; with Example 9 at 4 μg/ml)?
**A.** The value was <0.031 µg/mL.

**Q.** What about the “MIC ATB combined with Example 11 @8 μg/ml” value (KPN 6299; with Example 11 at 8 μg/ml) of the same molecule?
**A.** The value was <0.031 µg/mL.

**Q.** What about the “MIC ATB combined with Example 12 @8 μg/ml” value (KPN 6299; with Example 12 at 8 μg/ml) of the same molecule?
**A.** Its value is <0.031 µg/mL.

**Q.** What about the “MIC ATB combined with Example 13 @8 μg/ml” value (KPN 6299; with Example 13 at 8 μg/ml) of the same molecule?
**A.** Its value is 1 µg/mL.

**Q.** And the “MIC ATB combined with Example 14 @8 μg/ml” value (KPN 6299; with Example 14 at 8 μg/ml)?
**A.** Its value is <0.031 µg/mL.

**Q.** And the “MIC ATB combined with Example 15 @4 μgml” value (KPN 6299; with Example 15 at 4 μg/ml)?
**A.** Its value is <0.031 µg/mL.

**Q.** What about the “MIC ATB combined with Example 16 @4 μg/ml” value (KPN 6299; with Example 16 at 4 μg/ml) of the same molecule?
**A.** Its value is <0.031 µg/mL.

**Q.** What about the “MIC ATB alone” value (KPN BAA-1898; antibiotic alone) of the same molecule?
**A.** The value was 64 µg/mL.

**Q.** What about the “MIC ATB combined with Example 1 @8 μg/ml” value (KPN BAA-1898; with Example 1 @8 μg/ml) of the same molecule?
**A.** The value was 2 µg/mL.

**Q.** And the “MIC ATB combined with Example 1 @8 μg/ml” value (KPN BAA-1898; with Example 1 at 8 μg/ml)?
**A.** The value was 2 µg/mL.

**Q.** What about the “MIC ATB combined with Example 7 @8 μgml” value (KPN BAA-1898; with Example 7 at 8 μg/ml) of the same molecule?
**A.** Its value is 16 µg/mL.

**Q.** And the “MIC ATB combined with Example 9 @4 μg/ml” value (KPN BAA-1898; with Example 9 @4 μg/ml)?
**A.** Its value is <0.031 µg/mL.

**Q.** What about the “MIC ATB combined with Example 9 @4 μg/ml” value (KPN BAA-1898; with Example 9 at 4 μg/ml) of the same molecule?
**A.** Its value is <0.031 µg/mL.

**Q.** And the “MIC ATB combined with Example 11 @8 μg/ml” value (KPN BAA-1898; with Example 11 at 8 μg/ml)?
**A.** The value was <0.031 µg/mL.

**Q.** And the “MIC ATB combined with Example 12 @8 μg/ml” value (KPN BAA-1898; with Example 12 at 8 μg/ml)?
**A.** Its value is <0.031 µg/mL.

**Q.** And the “MIC ATB combined with Example 13 @8 μg/ml” value (KPN BAA-1898; with Example 13 at 8 μg/ml)?
**A.** The value was 0.5 µg/mL.

**Q.** What about the “MIC ATB combined with Example 14 @8 μg/ml” value (KPN BAA-1898; with Example 14 at 8 μg/ml) of the same molecule?
**A.** Its value is <0.031 µg/mL.

**Q.** What about the “MIC ATB combined with Example 15 @4 μgml” value (KPN BAA-1898; with Example 15 at 4 μg/ml) of the same molecule?
**A.** The value was <0.031 µg/mL.

**Q.** And the “MIC ATB combined with Example 16 @4 μg/ml” value (KPN BAA-1898; with Example 16 at 4 μg/ml)?
**A.** Its value is <0.031 µg/mL.

**Q.** What about the “MIC ATB alone” value (KPN UFR42; antibiotic alone) of the same molecule?
**A.** The value was 32 µg/mL.

**Q.** What about the “MIC ATB combined with Example 1 @8 μg/ml” value (KPN UFR42; with Example 1 @8 μg/ml) of the same molecule?
**A.** Its value is >32 µg/mL.

**Q.** What about the “MIC ATB combined with Example 1 @8 μg/ml” value (KPN UFR42; with Example 1 at 8 μg/ml) of the same molecule?
**A.** The value was >32 µg/mL.

**Q.** And the “MIC ATB combined with Example 7 @8 μgml” value (KPN UFR42; with Example 7 at 8 μg/ml)?
**A.** The value was >32 µg/mL.

**Q.** And the “MIC ATB combined with Example 9 @4 μg/ml” value (KPN UFR42; with Example 9 @4 μg/ml)?
**A.** The value was 32 µg/mL.

**Q.** What about the “MIC ATB combined with Example 9 @4 μg/ml” value (KPN UFR42; with Example 9 at 4 μg/ml) of the same molecule?
**A.** The value was 32 µg/mL.

**Q.** What about the “MIC ATB combined with Example 11 @8 μg/ml” value (KPN UFR42; with Example 11 at 8 μg/ml) of the same molecule?
**A.** The value was <0.031 µg/mL.

**Q.** And the “MIC ATB combined with Example 12 @8 μg/ml” value (KPN UFR42; with Example 12 at 8 μg/ml)?
**A.** Its value is <0.031 µg/mL.

**Q.** And the “MIC ATB combined with Example 13 @8 μg/ml” value (KPN UFR42; with Example 13 at 8 μg/ml)?
**A.** The value was >32 µg/mL.

**Q.** And the “MIC ATB combined with Example 14 @8 μg/ml” value (KPN UFR42; with Example 14 at 8 μg/ml)?
**A.** Its value is <0.031 µg/mL.

**Q.** What about the “MIC ATB combined with Example 15 @4 μgml” value (KPN UFR42; with Example 15 at 4 μg/ml) of the same molecule?
**A.** Its value is <0.031 µg/mL.

**Q.** And the “MIC ATB combined with Example 16 @4 μg/ml” value (KPN UFR42; with Example 16 at 4 μg/ml)?
**A.** Its value is <0.031 µg/mL.

**Q.** What about the “MIC ATB alone” value (ECL P99; antibiotic alone) of the same molecule?
**A.** Its value is 0.25 µg/mL.

**Q.** And the “MIC ATB combined with Example 1 @8 μg/ml” value (ECL P99; with Example 1 @8 μg/ml)?
**A.** The value was <0.031 µg/mL.

**Q.** What about the “MIC ATB combined with Example 1 @8 μg/ml” value (ECL P99; with Example 1 at 8 μg/ml) of the same molecule?
**A.** The value was <0.031 µg/mL.

**Q.** What about the “MIC ATB combined with Example 7 @8 μgml” value (ECL P99; with Example 7 at 8 μg/ml) of the same molecule?
**A.** Its value is 1 µg/mL.

**Q.** And the “MIC ATB combined with Example 9 @4 μg/ml” value (ECL P99; with Example 9 @4 μg/ml)?
**A.** Its value is <0.031 µg/mL.

**Q.** And the “MIC ATB combined with Example 9 @4 μg/ml” value (ECL P99; with Example 9 at 4 μg/ml)?
**A.** The value was <0.031 µg/mL.
